Laboratory results published in ChEMBL document CHEMBL1828590 (J Med Chem, 2011).

How the values were obtained:
[1] = (§1) Half life in mouse liver microsomes; assay type: ADME, Microsome; conditions: liver microsomes
[2] = Apparent permeability from apical to basolateral side of human Caco2 cells; assay type: ADME, cell-based; conditions: Caco-2
[3] = Apparent permeability from basolateral to apical side of human Caco2 cells; assay type: ADME, cell-based; conditions: Caco-2
[4] = Half life in human liver microsomes; assay type: ADME, Microsome
[5] = Kinetic solubility of the compound at pH 7 with […] DMSO; assay type: physicochemical; conditions: buffer, read-out: Kinetic_solubility
[6] = Half life in dog liver microsomes; assay type: ADME, Canis lupus familiaris, Microsome
[7] = 1-Octanol-sodium phosphate buffer distribution coefficient, log D of the compound at pH 7.4; assay type: physicochemical
[8] = Half life in rat liver microsomes; assay type: ADME, Microsome
PC-3 = assay: Antiproliferative activity against human PC3 cells after 96 hrs by celltiter 96 assay; assay type: functional, cell-based; conditions: PC-3, 96 h
Histone deacetylase 1 [9] = target: T1, Histone deacetylase 1 (Homo sapiens, UniProt Q13547)
T1 sequence (Q13547 whole entry): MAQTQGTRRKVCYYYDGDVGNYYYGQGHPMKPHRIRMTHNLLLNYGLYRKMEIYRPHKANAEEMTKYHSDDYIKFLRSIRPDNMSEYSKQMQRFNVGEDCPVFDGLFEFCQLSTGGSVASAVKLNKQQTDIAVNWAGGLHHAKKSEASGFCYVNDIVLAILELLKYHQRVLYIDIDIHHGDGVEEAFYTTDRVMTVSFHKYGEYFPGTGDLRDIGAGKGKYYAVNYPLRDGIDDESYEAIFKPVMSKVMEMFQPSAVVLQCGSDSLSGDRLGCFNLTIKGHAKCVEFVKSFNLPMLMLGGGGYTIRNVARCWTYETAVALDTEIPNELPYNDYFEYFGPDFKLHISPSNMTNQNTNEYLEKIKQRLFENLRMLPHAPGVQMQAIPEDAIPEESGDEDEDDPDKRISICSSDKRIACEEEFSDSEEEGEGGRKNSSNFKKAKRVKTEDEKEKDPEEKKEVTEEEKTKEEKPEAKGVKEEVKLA
Description: Competitive inhibition of HDAC1 using KI-104 as substrate by fluorescence assay

HCT-116 [10] = assay: Antiproliferative activity against human HCT116 cells after 96 hrs by celltiter 96 assay; assay type: functional, cell-based; conditions: HCT-116, 96 h
[11] = target: T2, Polyamine deacetylase HDAC10 (Homo sapiens, UniProt Q969S8)
T2 sequence (Q969S8 whole entry): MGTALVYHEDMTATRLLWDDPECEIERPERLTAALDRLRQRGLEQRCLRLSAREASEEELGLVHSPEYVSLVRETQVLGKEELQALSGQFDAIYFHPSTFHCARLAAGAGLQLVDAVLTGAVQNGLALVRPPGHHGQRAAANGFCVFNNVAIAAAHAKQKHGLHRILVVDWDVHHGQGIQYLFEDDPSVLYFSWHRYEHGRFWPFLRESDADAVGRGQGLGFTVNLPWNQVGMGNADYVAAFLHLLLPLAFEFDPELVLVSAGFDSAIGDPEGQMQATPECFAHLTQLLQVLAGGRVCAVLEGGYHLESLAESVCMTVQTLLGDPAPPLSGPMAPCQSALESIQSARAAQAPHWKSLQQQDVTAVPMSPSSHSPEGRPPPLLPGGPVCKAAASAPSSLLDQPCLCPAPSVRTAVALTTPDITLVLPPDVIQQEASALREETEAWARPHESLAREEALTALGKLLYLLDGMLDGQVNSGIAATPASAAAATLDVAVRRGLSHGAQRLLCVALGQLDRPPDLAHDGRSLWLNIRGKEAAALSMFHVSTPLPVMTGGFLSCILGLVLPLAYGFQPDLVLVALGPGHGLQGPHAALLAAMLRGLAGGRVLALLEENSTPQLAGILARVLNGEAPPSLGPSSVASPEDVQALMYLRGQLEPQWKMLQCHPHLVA
Description: Competitive inhibition of HDAC10 using KI-104 as substrate by fluorescence assay

COLO 205 = assay: Antiproliferative activity against human COLO205 cells after 96 hrs by celltiter 96 assay; assay type: functional, cell-based; conditions: COLO 205, 96 h
Histone deacetylase 11 = target: T3, Histone deacetylase 11 (Homo sapiens, UniProt Q96DB2)
T3 sequence (Q96DB2 whole entry): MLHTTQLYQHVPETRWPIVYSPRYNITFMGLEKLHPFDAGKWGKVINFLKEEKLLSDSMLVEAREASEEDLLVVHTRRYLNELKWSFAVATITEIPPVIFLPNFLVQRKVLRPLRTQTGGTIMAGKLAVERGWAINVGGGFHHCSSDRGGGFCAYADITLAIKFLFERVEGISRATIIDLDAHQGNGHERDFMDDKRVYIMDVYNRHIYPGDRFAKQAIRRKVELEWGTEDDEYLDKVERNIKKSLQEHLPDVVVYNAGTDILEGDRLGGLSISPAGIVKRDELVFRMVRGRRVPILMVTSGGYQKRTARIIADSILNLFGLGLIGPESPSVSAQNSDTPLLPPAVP
Description: Competitive inhibition of HDAC11 using KI-104 as substrate by fluorescence assay

Histone deacetylase 4 = Histone deacetylase 4 (Homo sapiens, UniProt P56524)
Chain of Histone deacetylase 4 (P56524 whole entry): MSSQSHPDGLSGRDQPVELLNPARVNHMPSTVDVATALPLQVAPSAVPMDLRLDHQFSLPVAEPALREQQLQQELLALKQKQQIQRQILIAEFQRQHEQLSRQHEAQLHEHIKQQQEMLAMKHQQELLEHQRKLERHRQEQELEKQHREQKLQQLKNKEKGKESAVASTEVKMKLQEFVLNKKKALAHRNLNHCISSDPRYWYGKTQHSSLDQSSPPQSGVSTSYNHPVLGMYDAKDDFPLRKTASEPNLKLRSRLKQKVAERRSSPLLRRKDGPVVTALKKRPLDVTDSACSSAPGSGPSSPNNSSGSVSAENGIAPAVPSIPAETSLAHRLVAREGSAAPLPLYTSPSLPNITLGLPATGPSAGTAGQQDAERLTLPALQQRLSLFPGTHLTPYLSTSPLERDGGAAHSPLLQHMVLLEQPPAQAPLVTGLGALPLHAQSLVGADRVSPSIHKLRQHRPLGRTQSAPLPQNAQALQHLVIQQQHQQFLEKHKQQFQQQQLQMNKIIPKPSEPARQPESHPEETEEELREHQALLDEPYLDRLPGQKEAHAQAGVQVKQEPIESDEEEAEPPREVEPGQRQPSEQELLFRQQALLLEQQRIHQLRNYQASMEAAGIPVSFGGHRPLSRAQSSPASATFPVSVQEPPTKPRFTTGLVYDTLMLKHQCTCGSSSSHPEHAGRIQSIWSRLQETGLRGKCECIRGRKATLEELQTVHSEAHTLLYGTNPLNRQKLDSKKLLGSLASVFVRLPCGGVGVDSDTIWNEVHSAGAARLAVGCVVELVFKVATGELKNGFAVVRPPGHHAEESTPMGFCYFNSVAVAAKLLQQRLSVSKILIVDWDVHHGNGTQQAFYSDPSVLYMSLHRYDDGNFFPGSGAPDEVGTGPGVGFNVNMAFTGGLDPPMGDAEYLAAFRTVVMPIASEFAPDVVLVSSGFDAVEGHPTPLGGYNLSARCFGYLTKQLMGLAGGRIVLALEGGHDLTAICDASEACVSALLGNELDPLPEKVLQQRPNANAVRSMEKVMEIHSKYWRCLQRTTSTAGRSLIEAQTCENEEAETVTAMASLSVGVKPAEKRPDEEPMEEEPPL
Description: Competitive inhibition of HDAC4 using KI-104 as substrate by fluorescence assay

Histone deacetylase 2 = Histone deacetylase 2 (Homo sapiens, UniProt Q92769)
Chain of Histone deacetylase 2 (Q92769 whole entry): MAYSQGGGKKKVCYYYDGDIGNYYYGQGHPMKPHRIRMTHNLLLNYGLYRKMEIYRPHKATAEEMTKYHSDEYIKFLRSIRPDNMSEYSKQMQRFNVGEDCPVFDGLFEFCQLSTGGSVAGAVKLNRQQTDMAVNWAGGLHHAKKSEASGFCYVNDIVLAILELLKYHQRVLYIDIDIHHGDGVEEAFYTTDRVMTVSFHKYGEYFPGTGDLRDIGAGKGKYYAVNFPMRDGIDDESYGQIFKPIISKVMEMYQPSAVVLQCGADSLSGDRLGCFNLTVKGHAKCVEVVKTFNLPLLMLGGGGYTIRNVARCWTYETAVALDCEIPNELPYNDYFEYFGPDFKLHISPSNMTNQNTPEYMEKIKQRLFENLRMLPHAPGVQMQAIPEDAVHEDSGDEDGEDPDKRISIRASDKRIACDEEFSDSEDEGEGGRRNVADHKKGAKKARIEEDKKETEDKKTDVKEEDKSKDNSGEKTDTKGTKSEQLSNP
Description: Competitive inhibition of HDAC2 using KI-104 as substrate by fluorescence assay

Histone deacetylase 5 = Histone deacetylase 5 (Homo sapiens, UniProt Q9UQL6)
Chain of Histone deacetylase 5 (Q9UQL6 whole entry): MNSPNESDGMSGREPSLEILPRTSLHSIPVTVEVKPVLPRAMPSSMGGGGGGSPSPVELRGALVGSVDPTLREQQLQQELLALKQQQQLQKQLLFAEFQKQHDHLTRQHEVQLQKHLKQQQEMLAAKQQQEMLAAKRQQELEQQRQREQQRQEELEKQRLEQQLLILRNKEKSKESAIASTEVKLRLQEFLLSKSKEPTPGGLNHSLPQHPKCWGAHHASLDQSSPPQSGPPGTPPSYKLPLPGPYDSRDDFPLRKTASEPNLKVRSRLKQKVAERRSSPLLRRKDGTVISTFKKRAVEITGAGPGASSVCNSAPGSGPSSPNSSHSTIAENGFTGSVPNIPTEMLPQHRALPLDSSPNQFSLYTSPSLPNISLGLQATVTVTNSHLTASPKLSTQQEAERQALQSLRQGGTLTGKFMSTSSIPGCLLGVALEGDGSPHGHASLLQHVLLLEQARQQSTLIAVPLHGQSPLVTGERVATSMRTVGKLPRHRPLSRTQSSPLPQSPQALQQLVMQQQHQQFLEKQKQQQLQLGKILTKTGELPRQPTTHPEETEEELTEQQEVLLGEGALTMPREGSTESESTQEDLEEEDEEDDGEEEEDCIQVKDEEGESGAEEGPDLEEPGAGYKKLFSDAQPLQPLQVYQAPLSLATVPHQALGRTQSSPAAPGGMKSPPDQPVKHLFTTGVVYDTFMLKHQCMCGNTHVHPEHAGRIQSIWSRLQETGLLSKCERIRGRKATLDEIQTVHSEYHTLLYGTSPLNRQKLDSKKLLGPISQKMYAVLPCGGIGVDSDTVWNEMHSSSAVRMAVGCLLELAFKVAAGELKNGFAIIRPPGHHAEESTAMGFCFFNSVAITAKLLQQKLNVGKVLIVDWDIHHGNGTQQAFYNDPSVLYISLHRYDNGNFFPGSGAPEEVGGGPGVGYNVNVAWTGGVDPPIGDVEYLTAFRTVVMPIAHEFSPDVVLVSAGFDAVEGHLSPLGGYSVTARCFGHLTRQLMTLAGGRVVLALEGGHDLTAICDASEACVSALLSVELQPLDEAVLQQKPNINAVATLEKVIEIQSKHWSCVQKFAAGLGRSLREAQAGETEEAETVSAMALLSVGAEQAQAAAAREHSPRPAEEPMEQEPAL
Description: Competitive inhibition of HDAC5 using KI-104 as substrate by fluorescence assay

[12] = target: T4, Protein deacetylase HDAC6 (Homo sapiens, UniProt Q9UBN7)
T4 sequence (Q9UBN7 whole entry): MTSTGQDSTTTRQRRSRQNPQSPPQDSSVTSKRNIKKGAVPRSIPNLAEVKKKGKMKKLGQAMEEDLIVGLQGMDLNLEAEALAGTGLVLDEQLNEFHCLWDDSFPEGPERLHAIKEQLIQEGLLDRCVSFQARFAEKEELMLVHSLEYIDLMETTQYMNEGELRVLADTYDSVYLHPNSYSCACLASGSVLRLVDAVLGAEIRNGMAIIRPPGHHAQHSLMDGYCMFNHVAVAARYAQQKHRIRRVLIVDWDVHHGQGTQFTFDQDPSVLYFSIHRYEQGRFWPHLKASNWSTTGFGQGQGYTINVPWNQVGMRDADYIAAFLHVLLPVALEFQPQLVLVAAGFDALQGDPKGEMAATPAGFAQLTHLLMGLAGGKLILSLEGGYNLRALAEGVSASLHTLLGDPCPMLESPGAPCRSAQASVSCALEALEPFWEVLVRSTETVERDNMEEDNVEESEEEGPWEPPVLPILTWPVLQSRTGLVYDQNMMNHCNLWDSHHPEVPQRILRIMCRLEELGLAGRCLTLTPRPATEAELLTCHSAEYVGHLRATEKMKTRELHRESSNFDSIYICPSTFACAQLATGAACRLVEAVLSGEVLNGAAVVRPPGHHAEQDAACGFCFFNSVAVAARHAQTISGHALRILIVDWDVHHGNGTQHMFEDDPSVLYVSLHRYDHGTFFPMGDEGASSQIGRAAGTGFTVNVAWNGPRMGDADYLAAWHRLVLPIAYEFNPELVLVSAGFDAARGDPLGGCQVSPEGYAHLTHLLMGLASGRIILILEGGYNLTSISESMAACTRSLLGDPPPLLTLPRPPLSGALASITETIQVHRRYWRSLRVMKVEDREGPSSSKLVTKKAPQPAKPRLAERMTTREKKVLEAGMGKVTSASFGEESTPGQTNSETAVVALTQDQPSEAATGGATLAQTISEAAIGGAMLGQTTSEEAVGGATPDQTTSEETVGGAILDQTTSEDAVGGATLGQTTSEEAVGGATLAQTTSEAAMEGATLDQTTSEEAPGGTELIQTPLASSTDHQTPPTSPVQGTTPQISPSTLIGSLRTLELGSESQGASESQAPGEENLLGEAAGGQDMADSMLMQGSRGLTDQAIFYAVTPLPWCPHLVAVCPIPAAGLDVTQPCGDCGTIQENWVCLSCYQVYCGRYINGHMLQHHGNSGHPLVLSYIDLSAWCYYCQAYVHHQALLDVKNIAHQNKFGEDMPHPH
Description: Competitive inhibition of HDAC6 using KI-104 as substrate by fluorescence assay

A2780 = assay: Antiproliferative activity against human A2780 cells after 96 hrs by celltiter 96 assay; assay type: functional, cell-based; conditions: A2780, 96 h
Histone deacetylase 8 = target: T5, Histone deacetylase 8 (Homo sapiens, UniProt Q9BY41)
T5 sequence (Q9BY41 whole entry): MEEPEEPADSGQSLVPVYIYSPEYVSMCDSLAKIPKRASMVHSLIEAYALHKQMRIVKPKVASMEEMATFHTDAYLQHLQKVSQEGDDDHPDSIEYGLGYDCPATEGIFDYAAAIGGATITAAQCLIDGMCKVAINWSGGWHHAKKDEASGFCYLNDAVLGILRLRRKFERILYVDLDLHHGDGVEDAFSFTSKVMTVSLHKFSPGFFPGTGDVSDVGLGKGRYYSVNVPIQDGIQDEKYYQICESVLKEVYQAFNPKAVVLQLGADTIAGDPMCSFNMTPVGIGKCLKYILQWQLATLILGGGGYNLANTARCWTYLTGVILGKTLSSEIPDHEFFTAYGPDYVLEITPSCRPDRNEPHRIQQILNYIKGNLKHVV
Description: Competitive inhibition of HDAC8 using KI-104 as substrate by fluorescence assay

[13] = Oral bioavailability in Wistar rat at 10 mg/kg; assay type: ADME, organism-based; conditions: in vivo
[14] = Toxicity in po dosed athymic nu/nu Harlan mouse with xenografted human HCT116 cells assessed as maximum tolerated administered qd for 21 days; assay type: organism-based, HCT-116; conditions: in vivo
Histone deacetylase 3 = Histone deacetylase 3 (Homo sapiens, UniProt O15379)
Chain of Histone deacetylase 3 (O15379 whole entry): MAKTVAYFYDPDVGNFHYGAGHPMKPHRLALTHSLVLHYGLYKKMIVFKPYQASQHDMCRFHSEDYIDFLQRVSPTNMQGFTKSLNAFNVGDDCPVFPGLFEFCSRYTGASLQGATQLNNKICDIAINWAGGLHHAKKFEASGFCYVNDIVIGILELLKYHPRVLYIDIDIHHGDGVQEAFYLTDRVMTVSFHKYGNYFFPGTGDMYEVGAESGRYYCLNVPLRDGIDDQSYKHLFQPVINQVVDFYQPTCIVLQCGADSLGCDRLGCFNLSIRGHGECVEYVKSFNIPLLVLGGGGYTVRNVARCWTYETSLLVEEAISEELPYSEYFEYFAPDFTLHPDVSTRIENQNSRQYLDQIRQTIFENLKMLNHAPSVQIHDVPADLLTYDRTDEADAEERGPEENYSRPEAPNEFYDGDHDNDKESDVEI
Description: Competitive inhibition of HDAC3 using KI-104 as substrate by fluorescence assay

Histone deacetylase 1 [15] = target: T1, Histone deacetylase 1; remark: listed apart in the source
Description: Inhibition of full length recombinant HDAC1 using Fluor de Lys as substrate by fluorescence assay

Histone deacetylase 9 = Histone deacetylase 9 (Homo sapiens, UniProt Q9UKV0)
Chain of Histone deacetylase 9 (Q9UKV0 whole entry): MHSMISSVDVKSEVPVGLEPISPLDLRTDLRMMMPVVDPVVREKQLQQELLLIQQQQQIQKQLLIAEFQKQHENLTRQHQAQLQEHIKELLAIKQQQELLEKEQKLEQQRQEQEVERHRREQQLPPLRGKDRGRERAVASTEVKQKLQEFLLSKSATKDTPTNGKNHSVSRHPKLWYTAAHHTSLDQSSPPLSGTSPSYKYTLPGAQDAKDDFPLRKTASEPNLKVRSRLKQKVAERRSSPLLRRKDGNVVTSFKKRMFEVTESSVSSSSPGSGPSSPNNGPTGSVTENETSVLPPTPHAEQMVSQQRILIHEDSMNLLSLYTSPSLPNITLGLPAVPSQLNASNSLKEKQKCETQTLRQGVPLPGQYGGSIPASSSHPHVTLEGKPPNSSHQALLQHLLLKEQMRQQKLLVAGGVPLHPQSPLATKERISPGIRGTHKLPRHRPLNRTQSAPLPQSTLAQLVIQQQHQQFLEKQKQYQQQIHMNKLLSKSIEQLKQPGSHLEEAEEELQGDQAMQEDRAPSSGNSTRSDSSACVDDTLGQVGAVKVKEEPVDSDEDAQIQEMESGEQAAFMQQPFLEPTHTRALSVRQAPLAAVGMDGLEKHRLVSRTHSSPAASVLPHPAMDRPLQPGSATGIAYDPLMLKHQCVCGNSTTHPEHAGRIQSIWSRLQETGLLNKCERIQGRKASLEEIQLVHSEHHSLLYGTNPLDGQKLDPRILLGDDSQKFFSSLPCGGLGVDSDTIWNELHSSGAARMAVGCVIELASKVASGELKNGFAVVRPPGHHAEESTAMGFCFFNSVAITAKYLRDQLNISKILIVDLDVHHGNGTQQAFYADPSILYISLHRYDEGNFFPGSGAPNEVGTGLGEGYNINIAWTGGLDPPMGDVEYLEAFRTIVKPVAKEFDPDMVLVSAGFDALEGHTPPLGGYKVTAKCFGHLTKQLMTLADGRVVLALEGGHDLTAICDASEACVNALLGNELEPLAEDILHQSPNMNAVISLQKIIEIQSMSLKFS
Description: Competitive inhibition of HDAC9 using KI-104 as substrate by fluorescence assay

Liver = assay: as §1; assay type: ADME, Microsome; conditions: microsomes
HCT-116 [16] = assay: Antitumor activity against human HCT116 cells xenografted in athymic nu/nu Harlan mouse assessed as tumor growth inhibition at 50 mg/kg, po qd for 21 days measured on day 22; assay type: functional; conditions: read-out: TGI
HCT-116 [17] = assay: Antitumor activity against human HCT116 cells xenografted in athymic nu/nu Harlan mouse assessed as tumor growth inhibition at 200 mg/kg, po qd for 21 days measured on day 22; assay type: functional; conditions: read-out: TGI
Mus musculus [18] = assay: Toxicity in athymic nu/nu Harlan mouse xenografted with human HCT116 cells assessed as mouse survival at 50 mg/kg, po QD for 21 days measured on day 22; assay type: organism-based, HCT-116; parameters: dose 50 mg/kg, route oral; conditions: in vivo, 504 h
HCT-116 [19] = assay: Antitumor activity against human HCT116 cells xenografted in athymic nu/nu Harlan mouse assessed as tumor growth inhibition at 100 mg/kg, po qd for 21 days measured on day 22; assay type: functional; conditions: read-out: TGI
Mus musculus [20] = assay: Toxicity in athymic nu/nu Harlan mouse xenografted with human HCT116 cells assessed as mouse survival at 200 mg/kg, po QD for 21 days measured on day 22; assay type: organism-based, HCT-116; parameters: dose 200 mg/kg, route oral; conditions: in vivo, 504 h
Mus musculus [21] = assay: Toxicity in athymic nu/nu Harlan mouse xenografted with human HCT116 cells assessed as mouse survival at 100 mg/kg, po QD for 21 days measured on day 22; assay type: organism-based, HCT-116; parameters: dose 100 mg/kg, route oral; conditions: in vivo, 504 h
Histone deacetylase 7 = Histone deacetylase 7 (Homo sapiens, UniProt Q8WUI4)
Description: Competitive inhibition of HDAC7 using KI-104 as substrate by fluorescence assay

Compound	half-life [1]	Papp A→B [2]	Papp B→A [3]	half-life [4]	solubility kinetic [5]	Ki (Histone deacetylase 1 [9])	IC50 (HCT-116 [10])	Ki [11]	IC50 (COLO 205)	Ki (Histone deacetylase 11)	Ki (Histone deacetylase 4)	Ki (Histone deacetylase 2)	Ki (Histone deacetylase 5)	Ki [12]	Ki (Histone deacetylase 8)	Ki (Histone deacetylase 3)	IC50 (Histone deacetylase 1 [15])	Ki (Histone deacetylase 9)	IC50 (PC-3)	IC50 (A2780)	further results
CCCCCCc1nc2cc(/C=C/C(=O)NO)ccc2n1CCNCC	–	–	–	–	–	11 nM	230 nM	28 nM	190 nM	13 nM	6.2 nM	18 nM	6.8 nM	282 nM	54 nM	13 nM	20 nM	14 nM	210 nM	240 nM	bioavailability [13]: 1.4%; MTD at 504 h [14]: 200 mg/kg
CCCCCCc1nc2cc(/C=C/C(=O)NO)ccc2n1CCNCC.Cl.Cl	1.6 min	0.97 ×10⁻⁶ cm/s	10.5 ×10⁻⁶ cm/s	51 min	> 200 µM	–	–	–	–	–	–	–	–	–	–	–	–	–	–	–	inhibition in vivo at 50 mg/kg (HCT-116 [16]): -9%; inhibition in vivo at 200 mg/kg (HCT-116 [17]): 41%; Activity (Mus musculus [18]): Non-toxic; inhibition in vivo at 100 mg/kg (HCT-116 [19]): -7%; Activity (Mus musculus [20]): Non-toxic; half-life [6]: 48 min; Activity (Mus musculus [21]): Non-toxic; half-life [8]: 1.1 min
CCCCCCc1nc2cc(/C=C/C(=O)NO)ccc2n1CCNC(C)C	–	–	–	–	–	20 nM	210 nM	29 nM	170 nM	14 nM	6.6 nM	18 nM	6.6 nM	348 nM	57 nM	15 nM	36 nM	16 nM	170 nM	200 nM	Ki (Histone deacetylase 7): 41 nM
CCCCc1nc2cc(/C=C/C(=O)NO)ccc2n1CCNC(C)C	–	–	–	–	–	26 nM	340 nM	34 nM	470 nM	18 nM	11 nM	33 nM	11 nM	225 nM	78 nM	27 nM	42 nM	30 nM	230 nM	380 nM	bioavailability [13]: 9%; MTD at 504 h [14]: 200 mg/kg
CC/C=C\CCc1nc2cc(/C=C/C(=O)NO)ccc2n1CCNCC	–	–	–	–	–	7.7 nM	660 nM	18 nM	310 nM	8.8 nM	2.4 nM	8.6 nM	3.1 nM	4 nM	55 nM	16 nM	21 nM	5.7 nM	160 nM	200 nM	–
CN(C)CC(C)(C)Cn1c(CCc2ccccc2)nc2cc(/C=C/C(=O)NO)ccc21	–	–	–	60 min	–	15 nM	–	23 nM	110 nM	16 nM	10 nM	39 nM	16 nM	23 nM	–	11 nM	42 nM	21 nM	–	–	t1/2 (Liver): 17 min

Now from value to compound, other results behind:

half-life [1]	Papp A→B [2]	Papp B→A [3]	half-life [4]	solubility kinetic [5]	Ki (Histone deacetylase 1 [9])	IC50 (HCT-116 [10])	Ki [11]	IC50 (COLO 205)	Ki (Histone deacetylase 11)	Ki (Histone deacetylase 4)	Ki (Histone deacetylase 2)	Ki (Histone deacetylase 5)	Ki [12]	Ki (Histone deacetylase 8)	Ki (Histone deacetylase 3)	IC50 (Histone deacetylase 1 [15])	Ki (Histone deacetylase 9)	Compound	IC50 (PC-3)	IC50 (A2780)	further results
5 min	3.01 ×10⁻⁶ cm/s	27.7 ×10⁻⁶ cm/s	60 min	> 200 µM	–	–	–	–	–	–	–	–	–	–	–	–	–	Cl.O=C(/C=C/c1ccc2c(c1)nc(CCc1ccccc1)n2CCN1CCCC1)NO	–	–	half-life [6]: 18 min; logD ([7]; 1-octanol/sodium phosphate buffer, read-out: logD): 2.1; half-life [8]: 4.3 min
–	–	–	90 min	–	12 nM	–	23 nM	87 nM	14 nM	8.7 nM	39 nM	18 nM	27 nM	–	11 nM	23 nM	24 nM	O=C(/C=C/c1ccc2c(c1)nc(CCc1ccccc1)n2CCN1CCCCC1)NO	–	–	t1/2 (Liver): 35 min
5 min	3.01 ×10⁻⁶ cm/s	27.7 ×10⁻⁶ cm/s	≥ 30 min	> 200 µM	–	190 nM	–	130 nM	–	8.5 nM	–	–	20 nM	95 nM	12 nM	–	–	O=C(/C=C/c1ccc2c(c1)nc(CCc1ccccc1)n2CCN1CCCC1)NO	–	–	half-life [6]: 18 min; logD ([7]; octanol/water): 2.1; half-life [8]: 4.3 min
